What was measured:
human TLR7 = molecular target: T1, human TLR7 (Homo sapiens, UniProt Q9NYK1); experiment: TLR7 inhibition reporter assay (HEK-Blue SEAP); format: cell-based; conditions: HEK-Blue cells overexpressing human TLR7, gardiquimod 7.5 μM, 22 hour incubation
T1 construct: host or cells: HEK-Blue cells
T1 sequence (Q9NYK1 27-1049): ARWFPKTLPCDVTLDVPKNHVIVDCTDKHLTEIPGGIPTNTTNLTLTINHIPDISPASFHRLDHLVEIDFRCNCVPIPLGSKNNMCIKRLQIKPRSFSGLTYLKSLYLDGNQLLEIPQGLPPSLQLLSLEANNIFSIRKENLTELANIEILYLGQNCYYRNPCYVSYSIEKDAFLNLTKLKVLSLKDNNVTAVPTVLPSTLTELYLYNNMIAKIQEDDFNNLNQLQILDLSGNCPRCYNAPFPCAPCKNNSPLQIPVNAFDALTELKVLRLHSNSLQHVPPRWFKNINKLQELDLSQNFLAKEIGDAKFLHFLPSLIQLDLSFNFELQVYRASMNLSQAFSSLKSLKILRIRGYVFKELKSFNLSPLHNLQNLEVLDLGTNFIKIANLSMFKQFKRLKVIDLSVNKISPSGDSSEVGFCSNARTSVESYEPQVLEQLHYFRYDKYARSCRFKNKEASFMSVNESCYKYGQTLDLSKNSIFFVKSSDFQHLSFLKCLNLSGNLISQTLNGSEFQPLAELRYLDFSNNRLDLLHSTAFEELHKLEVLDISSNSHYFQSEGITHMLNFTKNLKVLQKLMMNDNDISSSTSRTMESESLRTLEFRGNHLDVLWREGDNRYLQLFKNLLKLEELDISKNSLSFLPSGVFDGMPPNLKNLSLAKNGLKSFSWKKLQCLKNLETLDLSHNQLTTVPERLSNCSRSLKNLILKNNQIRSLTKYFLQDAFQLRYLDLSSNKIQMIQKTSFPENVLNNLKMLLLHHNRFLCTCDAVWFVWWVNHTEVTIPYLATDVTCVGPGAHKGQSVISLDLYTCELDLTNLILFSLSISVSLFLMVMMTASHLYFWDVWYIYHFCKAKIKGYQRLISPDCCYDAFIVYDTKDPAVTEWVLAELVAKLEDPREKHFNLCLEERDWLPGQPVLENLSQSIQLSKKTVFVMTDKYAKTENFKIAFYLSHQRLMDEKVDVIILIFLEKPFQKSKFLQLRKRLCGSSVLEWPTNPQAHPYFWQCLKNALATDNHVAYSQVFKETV
Method in brief: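 Cells (15000/well for TLR7, 20,000 for TLR8) were treated with compounds over 0.05 nM-50 μM final. After 22 h at 37° C, 5% CO2, SEAP was measured with HEK-Blue Detection reagent; percent inhibition was taken as reduction of agonist-plus-DMSO signal relative to a known inhibitor.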

human TLR9 = molecular target: T2, human TLR9 (Homo sapiens, UniProt Q9NR96); experiment: TLR9 inhibition reporter assay (HEK-Blue SEAP); format: cell-based; conditions: HEK-Blue cells overexpressing human TLR9, ODN2006 5 nM, 22 hour incubation
T2 construct: host or cells: HEK-Blue cells
T2 sequence (Q9NR96 26-1032): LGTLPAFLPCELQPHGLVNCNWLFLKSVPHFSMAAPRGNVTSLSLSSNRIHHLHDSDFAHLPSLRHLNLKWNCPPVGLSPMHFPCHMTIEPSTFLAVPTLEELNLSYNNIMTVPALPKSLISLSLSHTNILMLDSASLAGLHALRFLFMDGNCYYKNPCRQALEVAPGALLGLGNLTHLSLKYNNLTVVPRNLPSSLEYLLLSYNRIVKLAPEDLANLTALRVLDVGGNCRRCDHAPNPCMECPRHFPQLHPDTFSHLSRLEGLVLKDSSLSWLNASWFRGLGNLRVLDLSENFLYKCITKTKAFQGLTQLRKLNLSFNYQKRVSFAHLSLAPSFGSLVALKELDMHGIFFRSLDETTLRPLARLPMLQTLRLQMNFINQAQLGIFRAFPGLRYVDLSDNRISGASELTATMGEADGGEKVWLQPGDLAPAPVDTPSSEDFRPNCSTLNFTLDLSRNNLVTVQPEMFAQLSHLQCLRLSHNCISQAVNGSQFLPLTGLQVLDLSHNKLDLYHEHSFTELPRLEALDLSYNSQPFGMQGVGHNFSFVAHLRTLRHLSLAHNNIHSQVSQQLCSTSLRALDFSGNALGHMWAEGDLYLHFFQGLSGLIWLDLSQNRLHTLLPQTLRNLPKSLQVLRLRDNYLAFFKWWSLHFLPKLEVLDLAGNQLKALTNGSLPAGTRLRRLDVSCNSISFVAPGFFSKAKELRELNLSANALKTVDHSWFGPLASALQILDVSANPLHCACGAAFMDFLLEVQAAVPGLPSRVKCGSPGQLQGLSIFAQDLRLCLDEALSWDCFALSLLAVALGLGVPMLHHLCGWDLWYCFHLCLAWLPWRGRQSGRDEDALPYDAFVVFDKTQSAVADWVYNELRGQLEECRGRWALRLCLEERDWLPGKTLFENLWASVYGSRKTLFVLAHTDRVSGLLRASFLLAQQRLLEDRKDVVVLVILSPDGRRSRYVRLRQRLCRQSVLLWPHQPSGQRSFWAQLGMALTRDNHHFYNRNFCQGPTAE
Method in brief: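 Human TLR7/8/9 HEK-Blue reporter lines; dose range 0.05 nM–50 μM; 30 min RT preincubation; stimulus gardiquimod 7.5 μM / R848 15.9 μM / ODN2006 5 nM respectively; 22 h, 37 °C; SEAP detected colorimetrically.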

SMILES: COc1cc(-c2cc3[nH]c(=O)n(C4CCC(N5CC(F)(F)C5)CC4)c3cc2C(C)C)cn2ncnc12 (single isomer, unassigned) [Example 297]
- IC50 (human TLR7): 37.1 nM
- IC50 (human TLR9): 16200 nM

SMILES: COc1cc(-c2cc3[nH]c(=O)n(C4CCC(N5CCC(OC)C5)CC4)c3cc2C(C)C)cn2ncnc12 (centres unmarked) [Example 284, 6-isopropyl-5-(8-methoxy-[1,2,4]triazolo[1,5-a]pyridin-6-yl)-1-(4-(3-methoxypyrrolidin-1-yl)cyclohexyl)-1,3-dihydro-2H-benzo[d]imidazol-2-one]
- IC50 (human TLR7): 0.7 nM
- IC50 (human TLR9): 3560 nM

SMILES: CCN[C@H]1CC[C@@H](n2c(=O)[nH]c3cc(-c4cc(C)c5ncnn5c4)c(C)cc32)CC1 [Example 21, 1-((1s,4s)-4-(ethylamino)cyclohexyl)-6-methyl-5-(8-methyl-[1,2,4]triazolo[1,5-a]pyridin-6-yl)-1,3-dihydro-2H-benzo[d]imidazol-2-one]
- IC50 (human TLR7): 13.3 nM
- IC50 (human TLR9): 7060 nM

SMILES: COc1c(C)c(-c2cc3[nH]c(=O)n(C4CCC(N5CC6(COC6)C5)CC4)c3cc2C(C)C)cn2ncnc12 (single isomer, unassigned) [Example 270, 1-(4-(2-oxa-6-azaspiro[3.3]heptan-6-yl)cyclohexyl)-6-isopropyl-5-(8-methoxy-7-methyl-[1,2,4]triazolo[1,5-a]pyridin-6-yl)-1,3-dihydro-2H-benzo[d]imidazol-2-one]
- IC50 (human TLR7): 19.3 nM
- IC50 (human TLR9): 11600 nM

SMILES: COc1cc(-c2cc3[nH]c(=O)n(C4CCC(N(C)CCC(F)(F)F)CC4)c3cc2C(C)C)cn2ncnc12 (single isomer, unassigned) [Example 248, 6-isopropyl-5-(8-methoxy-[1,2,4]triazolo[1,5-a]pyridin-6-yl)-1-(4-(methyl(3,3,3-trifluoropropyl)amino)cyclohexyl)-1,3-dihydro-2H-benzo[d]imidazol-2-one]
- IC50 (human TLR7): 1.12 nM
- IC50 (human TLR9): 9770 nM

SMILES: Cc1cc2c(cc1-c1cc(C)c3ncnn3c1)[nH]c(=O)n2[C@H]1CC[C@H](N)CC1 [1 EF, 1-((1r,4r)-4-aminocyclohexyl)-6-methyl-5-(8-methyl-[1,2,4]triazolo[1,5-a]pyridin-6-yl)-1,3-dihydro-2H-benzo[d]imidazol-2-one]
- IC50 (human TLR7): 40.7 nM
- IC50 (human TLR9): 2310 nM

SMILES: COc1c(C)c(-c2cc3[nH]c(=O)n(C4CCC(N5CCC6(CC5)COC6)CC4)c3cc2C(C)C)cn2ncnc12 (single isomer, unassigned) [Example 267, 1-(4-(2-oxa-7-azaspiro[3.5]nonan-7-yl)cyclohexyl)-6-isopropyl-5-(8-methoxy-7-methyl-[1,2,4]triazolo[1,5-a]pyridin-6-yl)-1,3-dihydro-2H-benzo[d]imidazol-2-one]
- IC50 (human TLR7): 2.1 nM
- IC50 (human TLR9): > 50000 nM

SMILES: COc1cc(-c2cc3[nH]c(=O)n(C4CCC(N5CC6(COC6)C5)CC4)c3cc2C(C)C)cn2ncnc12 (centres unmarked) [Example 254, 1-(4-(2-oxa-6-azaspiro[3.3]heptan-6-yl)cyclohexyl)-6-isopropyl-5-(8-methoxy-[1,2,4]triazolo[1,5-a]pyridin-6-yl)-1,3-dihydro-2H-benzo[d]imidazol-2-one]
- IC50 (human TLR7): 6.81 nM
- IC50 (human TLR9): 14100 nM

SMILES: COc1cc(-c2cc3[nH]c(=O)n(C4CCC(N5CCC(S(C)(=O)=O)C5)CC4)c3cc2C(C)C)cn2ncnc12 (single isomer, unassigned) [Example 289, 6-isopropyl-5-(8-methoxy-[1,2,4]triazolo[1,5-a]pyridin-6-yl)-1-(4-(3-(methylsulfonyl)pyrrolidin-1-yl)cyclohexyl)-1,3-dihydro-2H-benzo[d]imidazol-2-one]
- IC50 (human TLR7): 11.9 nM
- IC50 (human TLR9): > 50000 nM

SMILES: COc1cc(-c2cc3[nH]c(=O)n(C4CCC(N5C6CCC5COC6)CC4)c3cc2C(C)C)cn2ncnc12 (single isomer, unassigned) [Example 253, 1-(4-(3-oxa-8-azabicyclo[3.2.1]octan-8-yl)cyclohexyl)-6-isopropyl-5-(8-methoxy-[1,2,4]triazolo[1,5-a]pyridin-6-yl)-1,3-dihydro-2H-benzo[d]imidazol-2-one]
- IC50 (human TLR7): 4.75 nM
- IC50 (human TLR9): 11100 nM

SMILES: Cc1c(-c2cc3[nH]c(=O)n([C@@H]4CCCNC4)c3cc2C(C)C)cn2ncnc2c1C [119 FC, (R)-5-(7,8-dimethyl-[1,2,4]triazolo[1,5-a]pyridin-6-yl)-6-isopropyl-1-(piperidin-3-yl)-1,3-dihydro-2H-benzo[d]imidazol-2-one]
- IC50 (human TLR7): 3.26 nM
- IC50 (human TLR9): 11700 nM

SMILES: Cc1c(-c2cc3[nH]c(=O)n(C4CCC(N5CCCC(F)C5)CC4)c3cc2C(C)C)cn2ncnc2c1C (centres unmarked) [Example 273, 5-(7,8-dimethyl-[1,2,4]triazolo[1,5-a]pyridin-6-yl)-1-(4-(3-fluoropiperidin-1-yl)cyclohexyl)-6-isopropyl-1,3-dihydro-2H-benzo[d]imidazol-2-one]
- IC50 (human TLR7): 9.22 nM
- IC50 (human TLR9): 13500 nM

SMILES: COc1cc(-c2cc3[nH]c(=O)n(C4CCC(N5CCC(S(C)(=O)=O)C5)CC4)c3cc2C(C)C)cn2ncnc12 (single isomer, unassigned) [Example 288, 6-isopropyl-5-(8-methoxy-[1,2,4]triazolo[1,5-a]pyridin-6-yl)-1-(4-(3-(methylsulfonyl)pyrrolidin-1-yl)cyclohexyl)-1,3-dihydro-2H-benzo[d]imidazol-2-one]
- IC50 (human TLR7): 5.09 nM
- IC50 (human TLR9): 47800 nM

SMILES: COc1cc(-c2ccc3c(c2)[nH]c(=O)n3C2CCNCC2)cn2ncnc12 [1 EI, 5-(8-methoxy-[1,2,4]triazolo[1,5-a]pyridin-6-yl)-1-(piperidin-4-yl)-1,3-dihydro-2H-benzo[d]imidazol-2-one]
- IC50 (human TLR7): > 3130 nM
- IC50 (human TLR9): 1180 nM

SMILES: COc1c(C)c(-c2cc3[nH]c(=O)n(C4CCC(N5CCCOCC5)CC4)c3cc2C(C)C)cn2ncnc12 (single isomer, unassigned) [Example 261, 1-(4-(1,4-oxazepan-4-yl)cyclohexyl)-6-isopropyl-5-(8-methoxy-7-methyl-[1,2,4]triazolo[1,5-a]pyridin-6-yl)-1,3-dihydro-2H-benzo[d]imidazol-2-one]
- IC50 (human TLR7): 15.5 nM
- IC50 (human TLR9): 18700 nM

SMILES: Cc1cc2c(cc1-c1cc(C)c3ncnn3c1)[nH]c(=O)n2[C@H]1CC[C@@H](NC2CCOCC2)CC1 [Example 30, 6-methyl-5-(8-methyl-[1,2,4]triazolo[1,5-a]pyridin-6-yl)-1-((1s,4s)-4-((tetrahydro-2H-pyran-4-yl)amino)cyclohexyl)-1,3-dihydro-2H-benzo[d]imidazol-2-one]
- IC50 (human TLR7): 8.23 nM
- IC50 (human TLR9): 4490 nM
